# Reference: patent publication US4479943A, “3-Demethoxyistamycin B, the 2"-N-formimidoyl derivative thereof and pharmaceutical composition containing same” (Zaidan Hojin Biseibutsu Kagaku Kenkyu Kai, priority 1982, dated 1984)
# Key:
# [1] = tested on: Staphylococcus aureus FDA 209P; assay: Antibacterial MIC, standard serial dilution; type: cell-based; details: nutrient agar, 37° C., 17 hours, as free base
# [2] = tested on: Staphylococcus aureus Smith; assay: Antibacterial MIC, standard serial dilution; type: cell-based; details: nutrient agar, 37° C., 17 hours, as free base
# [3] = tested on: Staphylococcus aureus Ap01; assay: Antibacterial MIC, standard serial dilution; type: cell-based; details: nutrient agar, 37° C., 17 hours, as free base
# [4] = tested on: Staphylococcus epidermidis 109; assay: Antibacterial MIC, standard serial dilution; type: cell-based; details: nutrient agar, 37° C., 17 hours, as free base
# [5] = tested on: Micrococcus flavus FDA 16; assay: Antibacterial MIC, standard serial dilution; type: cell-based; details: nutrient agar, 37° C., 17 hours, as free base
# [6] = tested on: Sarcina lutea PCI 1001; assay: Antibacterial MIC, standard serial dilution; type: cell-based; details: nutrient agar, 37° C., 17 hours, as free base
# [7] = tested on: Bacillus anthracis; type: cell-based; details: nutrient agar, 37° C., 17 hours, as free base
# [8] = tested on: Bacillus subtilis PCI 219; assay: Antibacterial MIC, standard serial dilution; type: cell-based; details: nutrient agar, 37° C., 17 hours, as free base
# [9] = tested on: Bacillus subtilis NRRL B-558; assay: Antibacterial MIC, standard serial dilution; type: cell-based; details: nutrient agar, 37° C., 17 hours, as free base
# [10] = tested on: Bacillus cereus ATCC 10702; assay: Antibacterial MIC, standard serial dilution; type: cell-based; details: nutrient agar, 37° C., 17 hours, as free base
# [11] = tested on: Corynebacterium bovis 1810; assay: Antibacterial MIC, standard serial dilution; type: cell-based; details: nutrient agar, 37° C., 17 hours, as free base
# [12] = tested on: Mycobacterium smegmatis ATCC 607; assay: Antibacterial MIC, standard serial dilution; type: cell-based; details: nutrient agar, 37° C., 17 hours, as free base
# [13] = tested on: Escherichia coli NIHJ; assay: Antibacterial MIC, standard serial dilution; type: cell-based; details: nutrient agar, 37° C., 17 hours, as free base
# [14] = tested on: Escherichia coli K-12; assay: Antibacterial MIC, standard serial dilution; type: cell-based; details: nutrient agar, 37° C., 17 hours, as free base
# [15] = tested on: Escherichia coli K-12 R5; assay: Antibacterial MIC, standard serial dilution; type: cell-based; details: nutrient agar, 37° C., 17 hours, as free base
# [16] = tested on: Escherichia coli K-12 R388; assay: Antibacterial MIC, standard serial dilution; type: cell-based; details: nutrient agar, 37° C., 17 hours, as free base
# [17] = tested on: Escherichia coli K-12 J5R11-2; assay: Antibacterial MIC, standard serial dilution; type: cell-based; details: nutrient agar, 37° C., 17 hours, as free base
# [18] = tested on: Escherichia coli K-12 ML1629; assay: Antibacterial MIC, standard serial dilution; type: cell-based; details: nutrient agar, 37° C., 17 hours, as free base
# [19] = tested on: Escherichia coli K-12 ML1630; assay: Antibacterial MIC, standard serial dilution; type: cell-based; details: nutrient agar, 37° C., 17 hours, as free base
# [20] = tested on: Escherichia coli K-12 ML1410; assay: Antibacterial MIC, standard serial dilution; type: cell-based; details: nutrient agar, 37° C., 17 hours, as free base
# [21] = tested on: Escherichia coli K-12 LA290 R55; assay: Antibacterial MIC, standard serial dilution; type: cell-based; details: nutrient agar, 37° C., 17 hours, as free base
# [22] = tested on: Escherichia coli K-12 LA290 R56; assay: Antibacterial MIC, standard serial dilution; type: cell-based; details: nutrient agar, 37° C., 17 hours, as free base
# [23] = tested on: Escherichia coli W677; assay: Antibacterial MIC, standard serial dilution; type: cell-based; details: nutrient agar, 37° C., 17 hours, as free base
# [24] = tested on: Escherichia coli JR66/W677; assay: Antibacterial MIC, standard serial dilution; type: cell-based; details: nutrient agar, 37° C., 17 hours, as free base
# [25] = tested on: Escherichia coli JR225; assay: Antibacterial MIC, standard serial dilution; type: cell-based; details: nutrient agar, 37° C., 17 hours, as free base
# [26] = tested on: Klebsiella pneumoniae PCI602; assay: Antibacterial MIC, standard serial dilution; type: cell-based; details: nutrient agar, 37° C., 17 hours, as free base
# [27] = tested on: Klebsiella pneumoniae 22#3038; assay: Antibacterial MIC, standard serial dilution; type: cell-based; details: nutrient agar, 37° C., 17 hours, as free base
# [28] = tested on: Shigella dysenteriae JS11910; assay: Antibacterial MIC, standard serial dilution; type: cell-based; details: nutrient agar, 37° C., 17 hours, as free base
# [29] = tested on: Salmonella typhi T-63; assay: Antibacterial MIC, standard serial dilution; type: cell-based; details: nutrient agar, 37° C., 17 hours, as free base
# [30] = tested on: Salmonella enteritidis 1891; assay: Antibacterial MIC, standard serial dilution; type: cell-based; details: nutrient agar, 37° C., 17 hours, as free base
# [31] = tested on: Proteus vulgaris 0X19; assay: Antibacterial MIC, standard serial dilution; type: cell-based; details: nutrient agar, 37° C., 17 hours, as free base
# [32] = tested on: Proteus rettgeri GN311; assay: Antibacterial MIC, standard serial dilution; type: cell-based; details: nutrient agar, 37° C., 17 hours, as free base
# [33] = tested on: Proteus rettgeri GN466; assay: Antibacterial MIC, standard serial dilution; type: cell-based; details: nutrient agar, 37° C., 17 hours, as free base
# [34] = tested on: Serratia marcescens; assay: Antibacterial MIC, standard serial dilution; type: cell-based; details: nutrient agar, 37° C., 17 hours, as free base
# [35] = tested on: Serratia sp. SOU; assay: Antibacterial MIC, standard serial dilution; type: cell-based; details: nutrient agar, 37° C., 17 hours, as free base
# [36] = tested on: Serratia sp. 4; assay: Antibacterial MIC, standard serial dilution; type: cell-based; details: nutrient agar, 37° C., 17 hours, as free base
# [37] = tested on: Providencia sp. Pv16; assay: Antibacterial MIC, standard serial dilution; type: cell-based; details: nutrient agar, 37° C., 17 hours, as free base
# [38] = tested on: Providencia sp. 2991; assay: Antibacterial MIC, standard serial dilution; type: cell-based; details: nutrient agar, 37° C., 17 hours, as free base
# [39] = tested on: Pseudomonas aeruginosa A3; assay: Antibacterial MIC, standard serial dilution; type: cell-based; details: nutrient agar, 37° C., 17 hours, as free base
# [40] = tested on: Pseudomonas aeruginosa No. 12; assay: Antibacterial MIC, standard serial dilution; type: cell-based; details: nutrient agar, 37° C., 17 hours, as free base
# [41] = tested on: Pseudomonas aeruginosa H9; assay: Antibacterial MIC, standard serial dilution; type: cell-based; details: nutrient agar, 37° C., 17 hours, as free base
# [42] = tested on: Pseudomonas aeruginosa H11; assay: Antibacterial MIC, standard serial dilution; type: cell-based; details: nutrient agar, 37° C., 17 hours, as free base
# [43] = tested on: Pseudomonas aeruginosa TI-13; assay: Antibacterial MIC, standard serial dilution; type: cell-based; details: nutrient agar, 37° C., 17 hours, as free base
# [44] = tested on: Pseudomonas aeruginosa GN315; assay: Antibacterial MIC, standard serial dilution; type: cell-based; details: nutrient agar, 37° C., 17 hours, as free base
# [45] = tested on: Pseudomonas aeruginosa 99; assay: Antibacterial MIC, standard serial dilution; type: cell-based; details: nutrient agar, 37° C., 17 hours, as free base
# [46] = tested on: Pseudomonas aeruginosa B-13; assay: Antibacterial MIC, standard serial dilution; type: cell-based; details: nutrient agar, 37° C., 17 hours, as free base
# [47] = tested on: Pseudomonas aeruginosa 21-75; assay: Antibacterial MIC, standard serial dilution; type: cell-based; details: nutrient agar, 37° C., 17 hours, as free base
# [48] = tested on: Pseudomonas aeruginosa PST1; assay: Antibacterial MIC, standard serial dilution; type: cell-based; details: nutrient agar, 37° C., 17 hours, as free base
# [49] = tested on: Pseudomonas aeruginosa ROS 134/PU21; assay: Antibacterial MIC, standard serial dilution; type: cell-based; details: nutrient agar, 37° C., 17 hours, as free base
# [50] = tested on: Pseudomonas aeruginosa K-Ps 102; assay: Antibacterial MIC, standard serial dilution; type: cell-based; details: nutrient agar, 37° C., 17 hours, as free base
# [51] = tested on: Pseudomonas maltophilia GN 907; assay: Antibacterial MIC, standard serial dilution; type: cell-based; details: nutrient agar, 37° C., 17 hours, as free base
# [52] = tested on: bacteria; details: in words; earlier work; cited from earlier work
# [53] = tested on: Escherichia coli K-12 C600 R135; assay: Antibacterial MIC, standard serial dilution; type: cell-based; details: nutrient agar, 37° C., 17 hours, as free base
structure (smiles),measurement,setting,value
"CNCC1CCC(N)C(OC2C(N)CC(O)C(N(C)C(=O)CNC=N)C2O)O1 (centres unmarked) [Demethyl formimidoyl ista B, 3-O-demethyl-2""-N-formimidoylistamycin B]",MIC,[1],0.39 µg/mL
same,MIC,[2],< 0.20 µg/mL
same,MIC,[3],0.39 µg/mL
same,MIC,[4],0.20 µg/mL
same,MIC,[5],0.39 µg/mL
same,MIC,[6],0.39 µg/mL
same,MIC,[7],0.39 µg/mL
same,MIC,[8],0.20 µg/mL
same,MIC,[9],< 0.20 µg/mL
same,MIC,[10],0.78 µg/mL
same,MIC,[11],< 0.20 µg/mL
same,MIC,[12],0.39 µg/mL
same,MIC,[13],0.39 µg/mL
same,MIC,[14],0.78 µg/mL
same,MIC,[15],0.78 µg/mL
same,MIC,[16],0.78 µg/mL
same,MIC,[17],1.56 µg/mL
same,MIC,[18],0.78 µg/mL
same,MIC,[19],1.56 µg/mL
same,MIC,[20],1.56 µg/mL
same,MIC,[21],0.78 µg/mL
same,MIC,[22],0.78 µg/mL
same,MIC,[23],0.39 µg/mL
same,MIC,[24],1.56 µg/mL
same,MIC,[25],0.39 µg/mL
same,MIC,[26],0.78 µg/mL
same,MIC,[27],1.56 µg/mL
same,MIC,[28],1.56 µg/mL
same,MIC,[29],< 0.20 µg/mL
same,MIC,[30],1.56 µg/mL
same,MIC,[31],0.39 µg/mL
same,MIC,[32],0.39 µg/mL
same,MIC,[33],0.39 µg/mL
same,MIC,[34],1.56 µg/mL
same,MIC,[35],12.5 µg/mL
same,MIC,[36],12.5 µg/mL
same,MIC,[37],0.78 µg/mL
same,MIC,[38],0.78 µg/mL
same,MIC,[39],0.20 µg/mL
same,MIC,[40],12.5 µg/mL
same,MIC,[41],12.5 µg/mL
same,MIC,[42],25 µg/mL
same,MIC,[43],12.5 µg/mL
same,MIC,[44],6.25 µg/mL
same,MIC,[45],100 µg/mL
same,MIC,[46],100 µg/mL
same,MIC,[47],25 µg/mL
same,MIC,[48],25 µg/mL
same,MIC,[49],100 µg/mL
same,MIC,[50],12.5 µg/mL
same,MIC,[51],> 100 µg/mL
same,antibacterial activity,[52],active not only against Pseudomonas aeruginosa but also against a variety of resistant bacteria
"CNCC1CCC(N)C(OC2C(N)CC(O)C(N(C)C(=O)CN)C2O)O1 (centres unmarked) [Demethyl ista B, 3-O-demethylistamycin B]",MIC,[1],0.39 µg/mL
same,MIC,[2],0.39 µg/mL
same,MIC,[3],0.39 µg/mL
same,MIC,[4],0.39 µg/mL
same,MIC,[5],3.13 µg/mL
same,MIC,[6],0.39 µg/mL
same,MIC,[7],0.78 µg/mL
same,MIC,[8],0.39 µg/mL
same,MIC,[9],0.39 µg/mL
same,MIC,[10],1.56 µg/mL
same,MIC,[11],0.39 µg/mL
same,MIC,[12],0.78 µg/mL
same,MIC,[13],0.39 µg/mL
same,MIC,[14],0.78 µg/mL
same,MIC,[16],0.78 µg/mL
same,MIC,[17],1.56 µg/mL
same,MIC,[18],1.56 µg/mL
same,MIC,[19],3.13 µg/mL
same,MIC,[20],3.13 µg/mL
same,MIC,[21],0.78 µg/mL
same,MIC,[22],0.78 µg/mL
same,MIC,[23],0.78 µg/mL
same,MIC,[24],1.56 µg/mL
same,MIC,[53],1.56 µg/mL
same,MIC,[25],0.78 µg/mL
same,MIC,[26],1.56 µg/mL
same,MIC,[27],3.13 µg/mL
same,MIC,[28],3.13 µg/mL
same,MIC,[29],0.39 µg/mL
same,MIC,[30],1.56 µg/mL
same,MIC,[31],0.39 µg/mL
same,MIC,[32],0.39 µg/mL
same,MIC,[33],0.39 µg/mL
same,MIC,[34],1.56 µg/mL
same,MIC,[35],6.25 µg/mL
same,MIC,[36],12.5 µg/mL
same,MIC,[37],0.78 µg/mL
same,MIC,[38],1.56 µg/mL
same,MIC,[39],0.20 µg/mL
same,MIC,[40],12.5 µg/mL
same,MIC,[41],12.5 µg/mL
same,MIC,[42],25 µg/mL
same,MIC,[43],6.25 µg/mL
same,MIC,[44],6.25 µg/mL
same,MIC,[45],25 µg/mL
same,MIC,[46],25 µg/mL
same,MIC,[47],25 µg/mL
same,MIC,[48],12.5 µg/mL
same,MIC,[49],50 µg/mL
same,MIC,[50],6.25 µg/mL
same,MIC,[51],100 µg/mL
same,antibacterial activity,[52],active not only against Pseudomonas aeruginosa but also against a variety of resistant bacteria
